Measured values from a melting point compilation (Tetko et al.; mined from patent text by program, amines drawn as free bases though some values may be those of a salt).

Structure (SMILES)	melting point
Fc1cccc(-c2nc(Nc3ccc(Cl)cc3)c3ccccc3n2)n1	118 to 121 °C
CCC1C(=O)Nc2c(C(=O)c3ccc(Cl)cc3)cccc21 (configuration not stated)	140 to 145 °C
CN1C2=C(C(=O)CC(C)(C)C2)C(c2ccc(Cl)c(Oc3ccccc3)c2)C2=C1CC(C)(C)CC2=O	183 to 185 °C
C=CCOc1ccc(C(=O)OC2CCC(CCCCCCC(=O)C(=C)C)CC2)cc1 (configuration not stated)	50 °C
COc1ccc2[nH]cc(CCC(=O)Nc3ccccc3C(=O)O)c2c1	168 to 170 °C
CN(C)CCCN(C)C(=O)c1cc([N+](=O)[O-])c[nH]1	118 to 120 °C
CC(C)CS(=O)(=O)c1ccc(N)c(S(=O)(=O)CC(C)C)c1	118 to 120 °C
O=C(O)C(Sc1nc2ccc(Cl)nc2s1)c1ccc(Cl)cc1 (configuration not stated)	144 to 146 °C
CC1(C)C(=O)Nc2ccc(-c3cccc([N+](=O)[O-])c3)cc21	234 to 235 °C
COc1cc(Nc2c(C#N)cnc3cc(-c4ccc(CNCCc5ccccn5)o4)ccc23)c(Cl)cc1Cl	130 to 135 °C
CCOc1ccc(-c2ccc(C#N)cc2)cc1C=O	110 to 121 °C
O=C1CCC(N2C(=O)c3cccc(CNC(=O)Nc4cccc5ccccc45)c3C2=O)C(=O)N1 (configuration not stated)	250 to 252 °C
CCCCn1cnnc1SC(=O)c1ccoc1	102 to 105 °C
Cc1oc(-c2ccccc2)nc1COCc1cccc(COc2cc(Cl)ccc2C(=O)O)c1	137 °C
CCOCCN(c1cccc2cc(C(N)=O)[nH]c12)S(=O)(=O)c1cccs1	135 °C
CCOC(=O)c1cc2n(c1)C(C)N(C(=O)OCC)c1ccccc1-2 (configuration not stated)	125 to 127 °C
N#Cc1cccc(Oc2ccccc2N)c1C#N	132 °C

Structure (SMILES)	melting point
O=C1OCCC1C(=O)c1ccc(F)cc1[N+](=O)[O-] (configuration not stated)	87 to 89 °C
O=C1C(c2cccn2Cc2ccccc2)=CC(=O)c2ncccc21	172 to 173 °C
O=C(O)c1cn(C2CC2)c2c(F)c(N3CCNCC3)c(F)c(F)c2c1=O	208 to 213 °C
CCc1cnc(N=Cc2cnc([N+](=O)[O-])n2C)n1CCO	185 to 187 °C
CCOCc1cc2cc(Br)ccc2oc1=Nc1cccc(OC)c1	93 to 94 °C
O=C(N[C@H]1CCCNC1=O)c1ccccc1F	166 to 168 °C
Cc1oc(-c2ccccc2)nc1CCc1ccc(CCCC2SC(=O)NC2=O)cc1 (configuration not stated)	99 to 100 °C
CCCCCCCCNC(=O)C=CSC(C(=O)c1ccccc1)C(=O)c1cccn1C (configuration not stated)	131 to 132 °C
CCCOc1ccc(C(=O)Cn2cncn2)cc1	97 to 99 °C
CC(C)N1C(=O)N(c2ccc(C#N)c(C(F)(F)F)c2)C(=O)C1(CO)CO	172 to 173 °C
Nc1cccc2c3c([nH]c12)C=C(NC(=O)c1ccc(F)cc1)C=CC3	121 to 122 °C
Cc1nc(OC(C)C(=O)O)nn1-c1ccccc1 (configuration not stated)	157 to 159 °C
CS(=O)c1ccc(-c2coc3ccc(-c4nnc(SCc5cccc(F)c5)o4)cc23)cc1 (configuration not stated)	135 to 136 °C
COc1cc(CN2CCNC(CO)C2)cc(OC)c1OC (configuration not stated)	93 °C
CC(C)C[C@H](NC(=O)OCc1ccccc1)C(=O)N[C@H]1CCOC1O (some centres not stated)	48 to 49 °C
COc1ccc2c3cc(C(=O)N4CCCCC4)ccc3n(CC3CCCCC3)c2c1	91 to 92 °C
CCCSc1ccc2cc[nH]c2c1	54 to 55 °C

Other lines, results leading:

melting point	Structure (SMILES)
308 to 311 °C	CCOC(=O)c1c(=O)c2cc3c(cc2n2c(C)csc12)OCO3
54 °C	CCOC(=O)C(C)=Cc1cc(F)c(F)c(F)c1
249 °C	Cc1cc(-c2ncn3c(C(F)(F)F)cc(-c4ccc(Br)cc4)nc23)ccn1
250 °C	CCCC(=O)Nc1n[nH]c2cc(Cl)c(Br)cc12
197 to 198 °C	CSc1ccc(-c2n[nH]c(=O)cc2-c2ccc(F)cc2)cc1
319 to 320 °C	COc1ccc(OC)n2nc(S(=O)(=O)Nc3c(F)cccc3F)nc12
99 to 100 °C	COc1cc(CCCO)ccc1OCc1nc(-c2ccco2)oc1C
160 to 161 °C	CCC(CC)c1ccc(Cl)c2nc3n(c12)CCCCN3c1cnc(N2CCCC2)cc1C
58 °C	Cc1c(-c2cc(CO)c(Cl)cc2F)nn(C)c1C(F)(F)F
113 to 115 °C	Cc1cc(C(C)c2ccccc2)c(O)c(-n2nc3ccc(Cl)cc3n2)c1 (configuration not stated)
198 to 199 °C	CCCn1nc2c(N)nc3ccccc3c2c1CCNC(=O)c1ccc(F)cc1
225 to 228 °C	CSC1NC(=O)N(c2cccc(C(F)(F)F)c2)C(=O)N1
167 to 169 °C	CCOC(=O)/C=C/c1c(-c2ccc(F)cc2)n(C(C)C)c(=O)c2ccccc12
130 to 131 °C	Nc1cc(C=O)nc(Cc2ccc(F)cc2)c1F
123 to 125 °C	CCCCOCCOc1ccc(-c2ccc3c(c2)C=C(C(=O)Nc2ccc(C(O)c4ccccn4)c(OC)c2)CCN3C(=O)C(F)(F)F)cc1 (configuration not stated)
171 to 172 °C	CC(O)c1c(Cl)nc2n(c1=O)CCS2 (configuration not stated)
> 300 °C	CCn1cc(C(=O)O)c(=O)c2cc(F)c(N3CC4CCCC3CN4C)c(F)c21 (configuration not stated)
243 to 245 °C	Cc1nc2cc(F)ccc2c(=O)n1C1CCC(=O)NC1=O (configuration not stated)
